pIC50: −log10 of the molar value. Read-outs that look alike come from different tables or passages of the source.
Biological target: T1, angiotensin-converting enzyme (ACE) (Sus scrofa, UniProt F1RRW5)
T1 construct: ACE isolated from porcine kidneys (EC 3.4.15.1)
T1 sequence (F1RRW5 34-1309): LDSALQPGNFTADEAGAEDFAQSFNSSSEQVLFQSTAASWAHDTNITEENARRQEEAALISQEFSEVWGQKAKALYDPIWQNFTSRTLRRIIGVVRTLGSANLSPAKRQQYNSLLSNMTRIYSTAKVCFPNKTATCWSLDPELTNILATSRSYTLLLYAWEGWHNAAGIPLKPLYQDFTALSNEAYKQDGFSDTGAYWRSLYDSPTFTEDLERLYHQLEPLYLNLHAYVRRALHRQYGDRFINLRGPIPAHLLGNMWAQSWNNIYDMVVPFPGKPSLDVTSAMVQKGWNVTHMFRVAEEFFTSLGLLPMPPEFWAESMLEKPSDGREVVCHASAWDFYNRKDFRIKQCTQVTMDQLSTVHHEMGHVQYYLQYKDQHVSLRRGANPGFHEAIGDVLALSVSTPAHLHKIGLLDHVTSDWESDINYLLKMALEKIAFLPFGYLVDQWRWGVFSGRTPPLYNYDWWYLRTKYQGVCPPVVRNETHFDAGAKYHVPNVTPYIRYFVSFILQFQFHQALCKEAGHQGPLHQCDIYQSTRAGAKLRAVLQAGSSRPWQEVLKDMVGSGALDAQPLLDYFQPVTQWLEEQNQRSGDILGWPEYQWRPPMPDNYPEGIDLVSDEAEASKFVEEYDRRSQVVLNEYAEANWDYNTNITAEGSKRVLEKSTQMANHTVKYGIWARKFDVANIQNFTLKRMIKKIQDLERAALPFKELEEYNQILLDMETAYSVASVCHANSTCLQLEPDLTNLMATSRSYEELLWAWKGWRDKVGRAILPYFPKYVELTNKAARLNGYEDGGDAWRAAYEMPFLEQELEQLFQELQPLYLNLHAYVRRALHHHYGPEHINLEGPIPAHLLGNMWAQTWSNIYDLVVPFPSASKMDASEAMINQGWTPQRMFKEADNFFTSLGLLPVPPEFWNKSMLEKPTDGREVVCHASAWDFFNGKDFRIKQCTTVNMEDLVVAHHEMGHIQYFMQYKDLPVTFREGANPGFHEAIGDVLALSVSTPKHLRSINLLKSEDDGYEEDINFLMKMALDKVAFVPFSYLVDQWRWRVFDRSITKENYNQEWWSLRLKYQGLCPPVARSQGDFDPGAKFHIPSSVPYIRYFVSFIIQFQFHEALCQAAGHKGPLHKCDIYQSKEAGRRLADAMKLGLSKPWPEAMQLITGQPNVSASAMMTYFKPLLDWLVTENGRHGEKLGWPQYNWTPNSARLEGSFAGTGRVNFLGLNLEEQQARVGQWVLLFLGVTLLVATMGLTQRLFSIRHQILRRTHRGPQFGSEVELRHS
Experiment: fluorescence assay, hydrolysis of Abz-Gly-Phe(NO2)-Pro
Type: biochemical

Structure (SMILES) | pIC50 | IC50 | IC50 (read-out: IC50 (μg/mL) (converted))
O=C1O[C@H]([C@@H](O)CO)C(O)=C1O [AA, L-ascorbic acid] | 1.09 |  | 
N[C@@H](CCC(=O)N[C@@H](CS)C(=O)NCC(=O)O)C(=O)O [GSH] |  | 12.79 ± 1.70 µg/mL | 
O=C(O)/C=C/c1ccc(O)c(O)c1 [CFA, Caffeic acid] |  |  | 8.97 mM

Source: article PMC7914463, “Caffeic Acid Modulates Processes Associated with Intestinal Inflammation” (Nutrients, 2021)
